How the values were obtained:
Assay type in all cases: in vivo
maize cv. "Pioneer" = experiment: Example A post-emergence test/greenhouse, crop damage, 0.1% Renex-36; settings: 10 g of a.i./ha; Table A1; about three weeks after application
Protocol: The active compound or safener components are in each case dissolved in a few ml (generally 2-3 ml) of solvent (generally acetone or N,N-dimethyl-formamide), and the solutions are combined and then—if appropriate after addition of an emulsifier—diluted with water to the desired concentration. […] The test plants are grown under controlled conditions (temperature, light, atmospheric humidity) in a greenhouse. […] The concentration of the spray liquor is chosen such that the particular amounts of active compound desired are applied in 500 l of water/ha. After spraying, the pots with the test plants are kept in a greenhouse chamber under controlled conditions (temperature, light, atmospheric humidity) until the test has ended. About three weeks after the application, the degree of damage to the crop plants is rated in % damage in comparison to the development of the untreated control. […] Active compounds, application rates, test plants and results are shown in the tables below, the terms being used in the tables being as defined below: • maize=maize cv. “Pioneer” • a.i.=active ingredient=active compound/safener

[1] = system: maize of the cultivar "Prinz"; experiment: Example A-3 post-emergence test/greenhouse, crop damage, Maize 1; settings: 7 days after the application, Table A-3-1
Protocol: (§1) The active compound or safener components are in each case dissolved in a few ml (generally 2-3 ml) of solvent (generally acetone or N,N-dimethyl-formamide), and the solutions are combined and then—if appropriate after addition of an emulsifier—diluted with water to the desired concentration. In general, an aqueous spray liquor was prepared using 0.1% of the additive Renex-36.
(§2) The test plants are grown under controlled conditions (temperature, light, atmospheric humidity) in a greenhouse. The test plants are sprayed when they have reached a height of 5-15 cm. The concentration of the spray liquor is chosen such that the particular amounts of active compound desired are applied in 500 l of water/ha.
(§3) After spraying, the pots with the test plants are kept in a greenhouse chamber under controlled conditions (temperature, light, atmospheric humidity) until the test has ended. […]
(§4) The figures denote: • 0%=no damage (like untreated control) • 100%=total destruction/damage
(§5) The compound I-2 was used as 10 WP. In each case, Marlipal® was added in an amount of 500 ml/ha.
(§6) Evaluation was carried out as early as 7 days after the application. • Maize 1=maize of the cultivar “Prinz” • Maize 2=maize of the cultivar “Pioneer” • Maize 3=maize of the cultivar “LIXIS”

[2] = system: maize of the cultivar "Pioneer"; experiment: Example A-3 post-emergence test/greenhouse, crop damage, Maize 2; settings: 7 days after the application, Table A-3-2
Protocol: as §1, §2, §3, §4, §5, §6

[3] = system: maize of the cultivar "LIXIS"; experiment: Example A-3 post-emergence test/greenhouse, crop damage, Maize 3; settings: 7 days after the application, Table A-3-3
Protocol: as §1, §2, §3, §4, §5, §6

winter barley [4] = experiment: Example A-5 post-emergence test/greenhouse, crop damage
Protocol: as §1, §2
(§7) After spraying, the pots with the test plants are kept in a greenhouse chamber under controlled conditions (temperature, light, atmospheric humidity) until the test has ended. About three weeks after the application, the degree of damage to the crop plants is rated in % damage in comparison to the development of the untreated control.
as §4
(§8) Mefenpyr-diethyl was used as 100 EC and the compound of Ex. No. I-2 was used as 10 WP.

winter wheat [5] = experiment: as above
Protocol: as §1, §2, §7, §4, §8

winter barley [6] = experiment: Example A-2 post-emergence test/greenhouse, crop damage, 0.5% Renex-36
Protocol: as §1, §2, §7, §4
Here, an aqueous spray liquor comprising 0.5% of the additive Renex-36 was prepared.

winter barley [7] = experiment: Example A-4 post-emergence test/greenhouse, crop damage; settings: safener alone 50 g of a.i./ha; Table A-4-4
Protocol: as §1, §2, §7, §4
(§9) Mefenpyr-diethyl was used as 100 EC.
(§10) The compounds of Ex. Nos. I-2 and I-13 were used as 10 WP.

winter wheat [8] = experiment: as above; settings: safener alone 50 g of a.i./ha; Table A-4-1
Protocol: as §1, §2, §7, §4, §9, §10

**Q.** With `COC(=O)c1csc(C)c1S(=O)(=O)NC(=O)n1nc(OC)n(C)c1=O` [I-2] as the compound, how does the “Damage maize (in %)” value (maize cv. "Pioneer") read?
**A.** Its value is 35%.

**Q.** What about the “Damage Maize 1 (in %)” value ([1]; 8 g of a.i./ha) of the same compound?
**A.** Its value is 10%.

**Q.** What about the “Damage Maize 1 (in %)” value ([1]; 15 g of a.i./ha) of the same compound?
**A.** The value was 20%.

**Q.** And the “Damage maize 2 (in %)” value ([2]; 8 g of a.i./ha)?
**A.** Its value is 10%.

**Q.** What about the “Damage maize 2 (in %)” value ([2]; 15 g of a.i./ha) of the same compound?
**A.** The value was 20%.

**Q.** What about the “Damage Maize 3 (in %)” value ([3]; 8 g of a.i./ha) of the same compound?
**A.** Its value is 20%.

**Q.** And the “Damage Maize 3 (in %)” value ([3]; 15 g of a.i./ha)?
**A.** Its value is 40%.

**Q.** With `CCOn1c(CC)nn(C(=O)NS(=O)(=O)c2c(C(=O)OC)csc2C)c1=O` [I-17] as the compound, how does the “Damage winter barley (in %)” value (winter barley [4]; 8 g of a.i./ha, Table A-5-13) read?
**A.** Its value is 70%.

**Q.** And the “Damage winter barley (in %)” value (winter barley [4]; 15 g of a.i./ha, Table A-5-13)?
**A.** The value was 70%.

**Q.** What about the “Damage winter barley (in %)” value (winter barley [4]; 30 g of a.i./ha, Table A-5-13) of the same compound?
**A.** The value was 80%.

**Q.** What about the “Damage winter wheat (in %)” value (winter wheat [5]; 8 g of a.i./ha, Table A-5-7) of the same compound?
**A.** The value was 40%.

**Q.** And the “Damage winter wheat (in %)” value (winter wheat [5]; 15 g of a.i./ha, Table A-5-7)?
**A.** Its value is 50%.

**Q.** What about the “Damage winter wheat (in %)” value (winter wheat [5]; 30 g of a.i./ha, Table A-5-7) of the same compound?
**A.** Its value is 70%.

**Q.** What does the source list for `COC(=O)c1csc(C)c1S(=O)(=O)[N-]C(=O)n1nc(OC)n(C)c1=O.[Na+]` [I-2, sodium salt]?
**A.** Damage winter barley (in %) (winter barley [6]; 2 g of a.i./ha, Table A-2-1): 50%; Damage winter barley (in %) (winter barley [6]; 4 g of a.i./ha, Table A-2-1): 60%

**Q.** What does the source list for `CCOC(=O)C1=NN(c2ccc(Cl)cc2Cl)C(C)(C(=O)OCC)C1` (centres unmarked) [mefenpyr-diethyl, diethyl 1-(2,4-dichloro-phenyl)-4,5-dihydro-5-methyl-1H-pyrazole-3,5-dicarboxylate, reference compound]?
**A.** Damage winter barley (in %) (winter barley [7]): 0%; Damage winter wheat (in %) (winter wheat [8]): 0%; Damage winter barley (in %) (winter barley [4]; safener alone 50 g of a.i./ha, Table A-5-11): 0%; Damage winter wheat (in %) (winter wheat [5]; safener alone 50 g of a.i./ha, Table A-5-1): 0%; Damage winter wheat (in %) (winter wheat [5]; safener alone 50 g of a.i./ha, Table A-5-2): 0%; Damage winter wheat (in %) (winter wheat [5]; safener alone 50 g of a.i./ha, Table A-5-3): 0%; Damage winter wheat (in %) (winter wheat [5]; safener alone 50 g of a.i./ha, Table A-5-4): 0%; Damage winter wheat (in %) (winter wheat [5]; safener alone 50 g of a.i./ha, Table A-5-5): 0%

**Q.** How did the “Damage winter wheat (in %)” value (winter wheat [5]; in vivo) turn out when `CCOC(=O)c1csc(C)c1S(=O)(=O)NC(=O)n1nc(OC)n(C)c1=O` [I-13] was run?
**A.** Its value is 50%.

**Q.** Which “Damage winter barley (in %)” value (winter barley [6]; safener alone 30 g of a.i./ha, Table A-2-2) does the source give for `COCC(=O)Nc1ccc(S(=O)(=O)NC(=O)c2ccccc2OC)cc1` [Comp. No. IId-25] here?
**A.** Its value is 0%.

**Q.** And the “Damage winter barley (in %)” value (winter barley [6]; safener alone 100 g of a.i./ha, Table A-2-2)?
**A.** The value was 0%.

Reference: patent US20200085058A1, “SELECTIVE HERBICIDES BASED ON SUBSTITUTED THIEN-3-YL-SULPHONYLAMINO(THIO)CARBONYLTRIAZOLIN(THI)ONES AND SAFENERS” (Bayer CropScience Aktiengesellschaft, priority 2001, published 2020)
